Measured values reported in patent US9113629B2, “4-amino-6-(4-substituted-phenyl)-picolinates and 6-amino-2-(4-substituted-phenyl)-pyrimidine-4-carboxylates and their use as herbicides” (DOW AGROSCIENCES LLC, priority 2013, dated 2015).

What was measured:
[1] = Post-emergent Test III, herbicidal activity in wheat and barley; format: in vivo, Lolium multiflorum, Lolium rigidum; details: Lolium multiflorum, post-emergence, 504 h, read-out: Visual Growth Reduction (%) 21 Days After Application LOLSS; for pest or weed control at 35 g/ha: 35 g ai/ha; for pest or weed control at 70 g/ha: 70 g ai/ha; for pest or weed control at 140 g/ha: 140 g ai/ha
Procedure, shortened: (§1)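 GR20, GR50, GR80 and GR90 come from probit analysis of visual injury scores (0 = none, 100 = complete kill) taken 21 d after treatment. Foliar application was by track sprayer delivering 187 L/ha at five rates, from high down to 1/16×, onto greenhouse plants at the 2–3 leaf stage, with solvent-blank controls.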

[2] = tested on: APESV: bentgrass (Apera spica-venti); assay: as above; format: in vivo; details: for pest or weed control at 35 g/ha / pest or weed control at 70 g/ha / pest or weed control at 140 g/ha: Apera spica-venti, post-emergence, 504 h, read-out: Visual Growth Reduction (%) 21 Days After Application APESV; for pest or weed control at 35 g/ha: 35 g ai/ha; for pest or weed control at 70 g/ha: 70 g ai/ha; for pest or weed control at 140 g/ha: 140 g ai/ha; for GR50 APESV / GR80 APESV: probit analysis, 21 days after application; for GR50 APESV: dose for growth reduction of 50 percent; for GR80 APESV: dose for growth reduction of 80 percent
Procedure, shortened: as §1

[3] = tested on: HORSS: barley, including spring and winter (Hordeum vulgare); assay: as above; format: in vivo; details: for pest or weed control at 35 g/ha / pest or weed control at 70 g/ha / pest or weed control at 140 g/ha: Hordeum vulgare, post-emergence, 504 h, read-out: Visual Growth Reduction (%) 21 Days After Application HORSS; for pest or weed control at 35 g/ha: 35 g ai/ha; for pest or weed control at 70 g/ha: 70 g ai/ha; for pest or weed control at 140 g/ha: 140 g ai/ha; for GR20 HORSS: probit analysis, dose for growth reduction of 20 percent, 21 days after application, crop
Procedure, shortened: as §1

[4] = tested on: KCHSC: kochia (Kochia scoparia); assay: as above; format: in vivo; details: for pest or weed control at 35 g/ha / pest or weed control at 70 g/ha / pest or weed control at 140 g/ha: Bassia scoparia, post-emergence, 504 h, read-out: Visual Growth Reduction (%) 21 Days After Application KCHSC; for pest or weed control at 35 g/ha: 35 g ai/ha; for pest or weed control at 70 g/ha: 70 g ai/ha; for pest or weed control at 140 g/ha: 140 g ai/ha; for GR50 KCHSC / GR80 KCHSC: probit analysis, 21 days after application; for GR50 KCHSC: dose for growth reduction of 50 percent; for GR80 KCHSC: dose for growth reduction of 80 percent
Procedure, shortened: as §1

[5] = tested on: LOLSS: ryegrass including, Italian ryegrass (Lolium multiflorum), rigid ryegrass (Lolium rigidum), annual ryegrass (Lolium multiflorum subsp. Gaudini); assay: as above; format: in vivo; details: probit analysis, 21 days after application; for GR50 LOLSS: dose for growth reduction of 50 percent; for GR80 LOLSS: dose for growth reduction of 80 percent
Procedure, shortened: as §1

[6] = tested on: MATSS: scented mayweed (Matricaria chamomilla), pineappleweed (Matricaria matricarioides); assay: as above; format: in vivo; details: for pest or weed control at 35 g/ha / pest or weed control at 70 g/ha / pest or weed control at 140 g/ha: Matricaria chamomilla, post-emergence, 504 h, read-out: Visual Growth Reduction (%) 21 Days After Application MATSS; for pest or weed control at 35 g/ha: 35 g ai/ha; for pest or weed control at 70 g/ha: 70 g ai/ha; for pest or weed control at 140 g/ha: 140 g ai/ha; for GR50 MATSS / GR80 MATSS: probit analysis, 21 days after application; for GR50 MATSS: dose for growth reduction of 50 percent; for GR80 MATSS: dose for growth reduction of 80 percent
Procedure, shortened: as §1

[7] = tested on: SETVI: green foxtail (Setaria viridis); assay: as above; format: in vivo; details: for pest or weed control at 35 g/ha / pest or weed control at 70 g/ha / pest or weed control at 140 g/ha: Setaria viridis, post-emergence, 504 h, read-out: Visual Growth Reduction (%) 21 Days After Application SETVI; for pest or weed control at 35 g/ha: 35 g ai/ha; for pest or weed control at 70 g/ha: 70 g ai/ha; for pest or weed control at 140 g/ha: 140 g ai/ha; for GR50 SETVI / GR80 SETVI: probit analysis, 21 days after application; for GR50 SETVI: dose for growth reduction of 50 percent; for GR80 SETVI: dose for growth reduction of 80 percent
Procedure, shortened: as §1

[8] = tested on: TRZSS: wheat, including spring and winter (Triticum aestivum); assay: as above; format: in vivo; details: for pest or weed control at 35 g/ha / pest or weed control at 70 g/ha / pest or weed control at 140 g/ha: Triticum aestivum, post-emergence, 504 h, read-out: Visual Growth Reduction (%) 21 Days After Application TRZSS; for pest or weed control at 35 g/ha: 35 g ai/ha; for pest or weed control at 70 g/ha: 70 g ai/ha; for pest or weed control at 140 g/ha: 140 g ai/ha; for GR20 TRZSS: probit analysis, dose for growth reduction of 20 percent, 21 days after application, crop
Procedure, shortened: as §1

SMILES	pest or weed control at 35 g/ha [1] [%]	pest or weed control at 70 g/ha [1] [%]	pest or weed control at 140 g/ha [1] [%]	pest or weed control at 35 g/ha [2] [%]	pest or weed control at 70 g/ha [2] [%]	pest or weed control at 140 g/ha [2] [%]	GR50 APESV [2] [g ai/ha]	GR80 APESV [2] [g ai/ha]	pest or weed control at 35 g/ha [3] [%]	pest or weed control at 70 g/ha [3] [%]	pest or weed control at 140 g/ha [3] [%]	GR20 HORSS [3] [g ai/ha]	pest or weed control at 35 g/ha [4] [%]	pest or weed control at 70 g/ha [4] [%]	pest or weed control at 140 g/ha [4] [%]	GR50 KCHSC [4] [g ai/ha]	GR80 KCHSC [4] [g ai/ha]	GR50 LOLSS [5] [g ai/ha]	GR80 LOLSS [5] [g ai/ha]	pest or weed control at 35 g/ha [6] [%]	also measured
COC(=O)c1nc(-c2ccc(I)cc2)c(F)c(N)c1Cl [Compound 118, Methyl 4-amino-6-(4-iodophenyl)-3-chloro-5-fluoropicolinate]	30 to 44	60 to 74	75 to 84	60 to 74	75 to 84	85 to 94	22	60	85 to 94	85 to 94	85 to 94	1	85 to 94	85 to 94	95 to 100	3	17	49	121	60 to 74	pest or weed control at 70 g/ha [6]: 75 to 84%; pest or weed control at 140 g/ha [6]: 85 to 94%; GR50 MATSS [6]: 14 g ai/ha; GR80 MATSS [6]: 60 g ai/ha; pest or weed control at 35 g/ha [7]: 0 to 29%; pest or weed control at 70 g/ha [7]: 30 to 44%; pest or weed control at 140 g/ha [7]: 60 to 74%; GR50 SETVI [7]: 91 g ai/ha; GR80 SETVI [7]: 184 g ai/ha; pest or weed control at 35 g/ha [8]: 75 to 84%; pest or weed control at 70 g/ha [8]: 85 to 94%; pest or weed control at 140 g/ha [8]: 85 to 94%; GR20 TRZSS [8]: 0 g ai/ha
COC(=O)c1nc(-c2ccc(Br)cc2)c(F)c(N)c1Cl [Compound 138, Methyl 4-amino-6-(4-bromophenyl)-3-chloro-5-fluoropicolinate]	60 to 74	75 to 84	85 to 94	85 to 94	85 to 94	95 to 100	2	12	85 to 94	85 to 94	95 to 100	1	95 to 100	95 to 100	95 to 100	1	4	20	66	60 to 74	pest or weed control at 70 g/ha [6]: 85 to 94%; pest or weed control at 140 g/ha [6]: 85 to 94%; GR50 MATSS [6]: 16 g ai/ha; GR80 MATSS [6]: 51 g ai/ha; pest or weed control at 35 g/ha [7]: 85 to 94%; pest or weed control at 70 g/ha [7]: 85 to 94%; pest or weed control at 140 g/ha [7]: 95 to 100%; GR50 SETVI [7]: 8 g ai/ha; GR80 SETVI [7]: 32 g ai/ha; pest or weed control at 35 g/ha [8]: 85 to 94%; pest or weed control at 70 g/ha [8]: 85 to 94%; pest or weed control at 140 g/ha [8]: 85 to 94%; GR20 TRZSS [8]: 1 g ai/ha
COC(=O)c1nc(-c2ccc(C#N)cc2)c(F)c(N)c1Cl [Compound 142]	0 to 29	0 to 29	0 to 29	0 to 29	0 to 29	0 to 29	>140	>140	0 to 29	0 to 29	0 to 29	57	45 to 59	60 to 74	60 to 74	17	>140	>140	>140	0 to 29	pest or weed control at 70 g/ha [6]: 0 to 29%; pest or weed control at 140 g/ha [6]: 30 to 44%; GR50 MATSS [6]: >140 g ai/ha; GR80 MATSS [6]: >140 g ai/ha; pest or weed control at 35 g/ha [7]: 0 to 29%; pest or weed control at 70 g/ha [7]: 0 to 29%; pest or weed control at 140 g/ha [7]: 0 to 29%; GR50 SETVI [7]: >140 g ai/ha; GR80 SETVI [7]: >140 g ai/ha; pest or weed control at 35 g/ha [8]: 0 to 29%; pest or weed control at 70 g/ha [8]: 0 to 29%; pest or weed control at 140 g/ha [8]: 45 to 59%; GR20 TRZSS [8]: >140 g ai/ha
Nc1c(F)c(-c2ccc(OC(F)F)cc2)nc(C(=O)O)c1Cl [Compound 143]	0 to 29	30 to 44	45 to 59	60 to 74	60 to 74	75 to 84	31	129	60 to 74	75 to 84	85 to 94	2	30 to 44	30 to 44	45 to 59	>140	>140	116	>140	0 to 29	pest or weed control at 70 g/ha [6]: 60 to 74%; pest or weed control at 140 g/ha [6]: 60 to 74%; GR50 MATSS [6]: 67 g ai/ha; GR80 MATSS [6]: >140 g ai/ha; pest or weed control at 35 g/ha [7]: 45 to 59%; pest or weed control at 70 g/ha [7]: 45 to 59%; pest or weed control at 140 g/ha [7]: 60 to 74%; GR50 SETVI [7]: 52 g ai/ha; GR80 SETVI [7]: >140 g ai/ha; pest or weed control at 35 g/ha [8]: 60 to 74%; pest or weed control at 70 g/ha [8]: 75 to 84%; pest or weed control at 140 g/ha [8]: 75 to 84%; GR20 TRZSS [8]: 0 g ai/ha
